Measurements published in US9938316B2, “Selective inhibitors of α2 isoform of Na,K-ATPase and use thereof for reduction of intra-ocular pressure and as cardiotonic agents” (priority 2013, dated 2018).

Columns and labels:
[1] = tested on: Na,K-ATPase α2β3 isoform complex; test: biochemical; design: species or system human; conditions: ratio of Ki, Table 6
Text: (§1) Human β1, β2 and β3 were cloned into the pHIL-D2 expression vector containing the human α1 or α2. pHIL-D2 expression vectors containing porcine (p) α1, human (h) α1 or human α2 with Hisx10 tagged porcine β1 were previously generated (7, 9). Human β1 (Accession: P05026), human β2 (Accession: P14415) and human β3 (Accession: […]) cDNAs in pSD5 vector were a gift from K. Geering Univ. Lausanne Switzerland. The open reading frames and flanking regions of hβ1, hβ2 and hβ3 (in pSD5) were amplified separately by polymerase chain reaction (PCR) using synthetic primers containing BglII and SalI cleavage sites. Each one of the amplified fragments were digested with BglII and SalI and ligated to BglII and SalI treated plasmid pHIL-D2-(pα1/His10pβ1) to generate pHIL-D2 (pα1/His10hβ1or2or3). hβ1, hβ2 and hβ3 containing fragments were excised from pHIL-D2-(pα1/His10hβ1or2or3) and subcloned into pHIL-D2-(hα1/His10pβ1) or pHIL-D2-(hα2/His10pβ1) to produce pHIL-D2-(hα1/His10hβ1or2or3) and pHIL-D2-(hα2/His10hβ1or2or3). The newly created plasmids were analyzed for correct integration and correct sequence of the insert by restriction enzymatic digestions and sequencing. DNA of each construct was prepared in large quantities in E. coli XL-1 Blue for Pichia pastoris transformation.
(§2) Inhibition of Na,K-ATPase activity of the detergent-soluble α1β1, α2β1, and α3β1 complexes by CG's was determined as described (6) using either the αβ or αβFXYD1 complexes. […] The K0.5K was estimated by varying K concentration in a medium containing a fixed total K+choline chloride of 60 mM, and constant NaCl of 140 mM. Curves were fitted to the Hill function v=Vmax*[S]^n/([S]^n+K^n), where S is the K concentration, n is the Hill coefficient and K^n is K0.5K. For comparison of different curves the ratio v/Vmax for each curve was calculated and replotted. In experiments to assess inhibition of Na,K-ATPase activity by cardiac glycosides of the present invention, the percent inhibition VCG/V0 was calculated and Ki values were obtained by fitting the data to the function VCG/V0=Ki/([CG]+Ki)+ c. Inhibition was estimated in 3-8 separate experiments and average Ki values ±SEM were calculated. Significance of differences between Kiα1 and Kiα2 was calculated by the unpaired Student's t-test (p values). […] P values <0.05 were considered significant.

[2] = molecular target: T1, Na,K-ATPase α2β2 isoform complex (Homo sapiens, UniProt P50993); test: biochemical
T1 construct: made in house; host or cells: Pichia pastoris SMD1165
Text: as §1, §2

[3] = tested on: Na,K-ATPase α2β2 isoform complex; test: biochemical; design: species or system human; conditions: ratio of Ki, Table 6
Text: as §1, §2

[4] = molecular target: T2, Na,K-ATPase α2β3 isoform complex (Homo sapiens, UniProt P50993); test: biochemical
T2 construct: made in house; host or cells: Pichia pastoris SMD1165
Text: as §1, §2

[5] = molecular target: T3, Na,K-ATPase α2β1 isoform complex (Homo sapiens, UniProt P50993); test: biochemical; format: biochemical; design: made in house; host or cells: Pichia pastoris SMD1165; conditions: Ki, nM ± SEM α2β1, Table 6
Procedure: (§3) Methods for transformation, culture of P. pastoris clones, protein expression of Na,K-ATPase human isoforms (α1β1, α2β1, α3β1), membrane preparation, solubilization of membranes in DDM, and purification on BD-Talon beads have been described in detail (6-9, 11, 25). In initial experiments the three purified isoform complexes (0.3-0.5 mg/ml) were eluted from the BD-Talon beads in a solution containing Imidazole 170 mM, NaCl 100 mM; Tricine.HCl 20 mM pH 7.4; C12E8, 0.1 mg/ml; SOPS 0.07 mg/ml cholesterol 0.01 mg/ml, glycerol 25%. In later experiments the isoforms complexes were reconstituted with purified FXYD1 on the BD-Talon beads together as described in detail in (10, 11) prior to elution of α1β1FXYD1, α2β1FXYD1 and α3β1FXYD1 complexes. The proteins were stored at −80° C. Protein concentration was determined with BCA (B9643 Sigma).
as §2

[6] = tested on: Na,K-ATPase α2β1 isoform complex; test: biochemical; format: biochemical, human; conditions: for Selectivity ratio Ki α1/α2 ± S.E.: Kiα1β1/Kiα2β1; for Selectivity α1β1/α2/β1: ratio of Ki, Table 6
Procedure: as §3, §2

[7] = molecular target: T3, Na,K-ATPase α2β1 isoform complex; test: biochemical; format: biochemical; conditions: Ki ± S.E. α2, Table 2; α2β1
Procedure: as §3, §2

[8] = molecular target: T4, Na,K-ATPase α1β1 isoform complex (Homo sapiens, UniProt P05023); test: biochemical; design: made in house; host or cells: Pichia pastoris SMD1165; conditions: Ki, nM ± SEM α1β1, Table 6
Procedure: as §3, §2

[9] = molecular target: T4, Na,K-ATPase α1β1 isoform complex; test: biochemical; conditions: Ki ± S.E. α1, Table 2; α1β1
Procedure: as §3, §2

[10] = tested on: intra-ocular pressure (IOP) of rabbits; test: 4-aminopyridine (4AP)-induced ocular hypertension in rabbits; format: in vivo, New Zealand white rabbits; conditions: applied topically prior to 4AP
Procedure: Intra-ocular pressure in rabbits was measured using of a “Reichert Model 30™ Pneumatonometer” after anesthetizing the cornea with local anesthetic.
Since the IOP reflects a balance of the inflow and outflow of aqueous humour, reduction of the increased 4AP-induced inflow of aqueous humour by cardiac glycosides should prevent the increase in IOP. Thus, the standard experimental design to test effects of cardiac glycosides involved topical application of the compounds (1 drop in each eye) 30 minutes prior to application of 4AP and measurement of IOP every 30 minutes over five hours. […] Each experiment was done three times, but the figures depict a representative experiment using a different rabbit for each concentration of the cardiac glycoside.
DGlyN or DMe (0.1 or 1 mM) were applied one hour after the first application of 4AP, which was added every two hours.
(§4) New Zealand white rabbits (3-3.5 kg) about 1 year old, of either sex, were housed individually in separate cages in animal room conditions on a reversed, 12-hour dark/light cycle. For the experiments the animals were transferred to rabbit restrainers in a quiet and calm atmosphere (FIG. 1). […] Animal care and treatment were subject to the approval of the institutional committee for animal experiments, Weizmann Institute IACUC permission (no 04270911-2).
(§5) IOP (mm Hg) of rabbits was measured using a calibrated Pneumatonometer (Model 30, Reichert technologies, FIG. 1). A local anesthetic Oxybuprocaine HCl (0.4%, 25 μl) was applied to each cornea about a minute before IOP measurements. Two baseline IOP readings were taken before topical administration of the CG (or PBS as control) and after half an hour (Zero time). […] At zero time one drop of 4AP (40 mg/ml, 30 μl) or IB-MECA (1 μM, 30 μl) was administered to both eyes of each rabbit IOP measurements were made at different times as indicated in each experiment. In the experiments for which the IOP was elevated for several hours, 4AP was added every […] or IB-MECA every 2 hours. […] In all cases the figures depict the average effect on IOP (i.e for four or six eyes) compared to control ±SEM. […] Significance of differences from the control was calculated by the unpaired Students t-test (p values), p values <0.05 were considered significant. Corneal thickness (μm) was measured using an ultrasonic pachymeter (Sonogage pachometer, Cleveland, USA), before and during the experiment with CG and 4AP treatments. The values represent averages of three independent measurements for each eye.

[11] = tested on: intra-ocular pressure (IOP) of rabbits; test: IB-MECA-induced ocular hypertension in rabbits; format: in vivo, New Zealand white rabbits; conditions: single drop, 1 μM
Procedure: IB-MECA induces acute ocular hypertension by a different and well-defined mechanism. Namely, IB-MECA is a selective agonist of the A3-adenosine receptor, and rises aqueous humour inflow and IOP by activating Cl channels of the NPE cells (18, 19). […] FIG. 8A depicts the effects of DMe (0.1-1 mM) applied prior to the IB-MECA, and a similar result was obtained for DGlyN (not shown). FIG. 8B depicts effects of digoxigenin, DGlyN and DMe (1 mM) applied after the IB-MECA.
as §4, §5

Row | Structure (SMILES) | Selectivity α1β1/α2β3 [1] | Ki [2] [nM] | Selectivity α1β1/α2/β2 [3] | Ki [4] [nM] | Ki [5] [nM] | Selectivity ratio Ki α1/α2 ± S.E. [6] | Selectivity α1β1/α2/β1 [6] | Ki [7] [nM] | Ki [8] [nM] | Ki [9] [nM] | Concentration required to fully prevent the rise in IOP [10] [µM] | Effect on IOP [11]
1 | CCN1CCC(OC2C(O)CC(OC3C(O)CC(OC4CCC5(C)C(CCC6C5CC(O)C5(C)C(C7=CC(=O)OC7)CCC65O)C4)OC3C)OC2C)OC(C)C1 (stereo not drawn) [DEt] | 9.5 | 16.4 ± 1.6 | 8.3 | 14.4 ± 1.27 | 23.2 ± 0.9 | 2.88 ± 0.78 | 5.9 | 18.5 ± 4.9 | 138 ± 12.6 | 53 ± 3.4 | – | –
2 | CC(C)CN1CCC(OC2C(O)CC(OC3C(O)CC(OC4CCC5(C)C(CCC6C5CC(O)C5(C)C(C7=CC(=O)OC7)CCC65O)C4)OC3C)OC2C)OC(C)C1 (stereo not drawn) [DIB] | – | 10 ± 0.8 | – | 5.8 | 20.6 ± 1.4 | – | – | – | 92 ± 8.9 | – | > 30 | –
3 | CC1CN(C(C)C)CCC(OC2C(O)CC(OC3C(O)CC(OC4CCC5(C)C(CCC6C5CC(O)C5(C)C(C7=CC(=O)OC7)CCC65O)C4)OC3C)OC2C)O1 (stereo not drawn) [DIP] | 14.4 | 16.7 ± 1.9 | 8.9 | 10.3 ± 1.8 | 28.9 ± 1.7 | – | 5.1 | – | 149 ± 20.7 | – | – | –
4 | CC1CN(CC(F)(F)F)CCC(OC2C(O)CC(OC3C(O)CC(OC4CCC5(C)C(CCC6C5CC(O)C5(C)C(C7=CC(=O)OC7)CCC65O)C4)OC3C)OC2C)O1 (stereo not drawn) [DMeCF3] | 9.6 | 18.1 ± 1.9 | 6.5 | 12.4 ± 1.5 | 28.6 ± 0.9 | 4.50 ± 1.0 | 4.1 | 44 ± 7 | 119 ± 15 | 199 ± 33 | – | –
5 | CCCN1CCC(OC2C(O)CC(OC3C(O)CC(OC4CCC5(C)C(CCC6C5CC(O)C5(C)C(C7=CC(=O)OC7)CCC65O)C4)OC3C)OC2C)OC(C)C1 (stereo not drawn) [DP] | 8.8 | 10.5 ± 1.8 | 8.3 | 9.8 ± 1.1 | 18.3 ± 1.68 | – | 4.8 | – | 87.7 ± 7.9 | – | – | –
6 | CC1CN(C[Si](C)(C)C)CCC(OC2C(O)CC(OC3C(O)CC(OC4CCC5(C)C(CCC6C5CC(O)C5(C)C(C7=CC(=O)OC7)CCC65O)C4)OC3C)OC2C)O1 (stereo not drawn) [DTMS] | 13.8 | 15 | 7.2 | 7.8 | 31.5 | – | 3.4 | – | 108 | – | – | –
7 | CC1CN(C(C)(C)C)CCC(OC2C(O)CC(OC3C(O)CC(OC4CCC5(C)C(CCC6C5CC(O)C5(C)C(C7=CC(=O)OC7)CCC65O)C4)OC3C)OC2C)O1 (stereo not drawn) [DtB] | 8.2 | 18.4 ± 1.1 | 7.3 | 16.3 ± 0.28 | 21.6 ± 5.6 | – | 6.2 | – | 135 ± 12.1 | – | – | –
8 | CNC(=O)[C@H]1O[C@@H](n2cnc3c(NCc4cccc(I)c4)ncnc32)[C@H](O)[C@@H]1O [IB-MECA, reference compound] | – | – | – | – | – | – | – | – | – | – | – | significant but transient increase in IOP
